# ± gives the uncertainty stated by the source.
# Test: xn = mol fraction of the nth substance listed
structure (smiles),measurement,setting,value
CCC(C)(O)CC + CO,viscosity,"298.15 K, 101.33 kPa, x2 = 0.1032",3.799 ± 0.035 mPa·s
same,viscosity,"298.15 K, 101.33 kPa, x2 = 0.2156",3.553 ± 0.032 mPa·s
same,viscosity,"298.15 K, 101.33 kPa, x2 = 0.3158",3.317 ± 0.03 mPa·s
same,viscosity,"298.15 K, 101.33 kPa, x2 = 0.4019",3.048 ± 0.028 mPa·s
same,viscosity,"298.15 K, 101.33 kPa, x2 = 0.5004",2.6 ± 0.024 mPa·s
same,viscosity,"298.15 K, 101.33 kPa, x2 = 0.6084",2.079 ± 0.019 mPa·s
same,viscosity,"298.15 K, 101.33 kPa, x2 = 0.7088",1.568 ± 0.015 mPa·s
same,viscosity,"298.15 K, 101.33 kPa, x2 = 0.8021",1.16 ± 0.011 mPa·s
same,viscosity,"298.15 K, 101.33 kPa, x2 = 0.9011",0.8027 ± 0.0079 mPa·s
[Br-].[Li+] + CO,viscosity,"293.15 K, 101 kPa, x2 = 0.7334",86.34 ± 8.7 mPa·s
same,viscosity,"293.15 K, 101 kPa, x2 = 0.7699",40.18 ± 4.1 mPa·s
same,viscosity,"293.15 K, 101 kPa, x2 = 0.804",20.18 ± 2 mPa·s
same,viscosity,"293.15 K, 101 kPa, x2 = 0.8367",10.43 ± 1 mPa·s
same,viscosity,"293.15 K, 101 kPa, x2 = 0.8645",6.343 ± 0.64 mPa·s
same,viscosity,"293.15 K, 101 kPa, x2 = 0.8908",4.223 ± 0.42 mPa·s
same,viscosity,"303.15 K, 101 kPa, x2 = 0.6926",102.1 ± 10 mPa·s
same,viscosity,"303.15 K, 101 kPa, x2 = 0.7326",55.05 ± 5.5 mPa·s
same,viscosity,"303.15 K, 101 kPa, x2 = 0.7698",28.35 ± 2.9 mPa·s
same,viscosity,"303.15 K, 101 kPa, x2 = 0.8039",15.05 ± 1.5 mPa·s
same,viscosity,"303.15 K, 101 kPa, x2 = 0.836",8.725 ± 0.88 mPa·s
same,viscosity,"303.15 K, 101 kPa, x2 = 0.8642",5.422 ± 0.54 mPa·s
same,viscosity,"303.15 K, 101 kPa, x2 = 0.8908",3.697 ± 0.37 mPa·s
same,viscosity,"313.15 K, 101 kPa, x2 = 0.6913",65.32 ± 6.6 mPa·s
same,viscosity,"313.15 K, 101 kPa, x2 = 0.7324",35.2 ± 3.5 mPa·s
same,viscosity,"313.15 K, 101 kPa, x2 = 0.7697",19.67 ± 2 mPa·s
same,viscosity,"313.15 K, 101 kPa, x2 = 0.8039",11.37 ± 1.1 mPa·s
same,viscosity,"313.15 K, 101 kPa, x2 = 0.836",7.147 ± 0.72 mPa·s
same,viscosity,"313.15 K, 101 kPa, x2 = 0.8644",4.634 ± 0.46 mPa·s
same,viscosity,"313.15 K, 101 kPa, x2 = 0.8908",3.566 ± 0.36 mPa·s
same,viscosity,"323.15 K, 101 kPa, x2 = 0.691",42.31 ± 4.3 mPa·s
same,viscosity,"323.15 K, 101 kPa, x2 = 0.7323",24.55 ± 2.5 mPa·s
same,viscosity,"323.15 K, 101 kPa, x2 = 0.7696",14.41 ± 1.4 mPa·s
same,viscosity,"323.15 K, 101 kPa, x2 = 0.8039",9.136 ± 0.92 mPa·s
same,viscosity,"323.15 K, 101 kPa, x2 = 0.836",5.438 ± 0.55 mPa·s
same,viscosity,"323.15 K, 101 kPa, x2 = 0.8644",3.976 ± 0.4 mPa·s
ClC(Cl)(Cl)Cl + COC(=O)OC,viscosity,"298.15 K, 101.33 kPa, x2 = 0.0994",0.77 ± 0.02 mPa·s
same,viscosity,"298.15 K, 101.33 kPa, x2 = 0.201",0.724 ± 0.019 mPa·s
same,viscosity,"298.15 K, 101.33 kPa, x2 = 0.3063",0.689 ± 0.018 mPa·s
same,viscosity,"298.15 K, 101.33 kPa, x2 = 0.4005",0.656 ± 0.018 mPa·s
same,viscosity,"298.15 K, 101.33 kPa, x2 = 0.5036",0.631 ± 0.017 mPa·s
same,viscosity,"298.15 K, 101.33 kPa, x2 = 0.5982",0.608 ± 0.017 mPa·s
same,viscosity,"298.15 K, 101.33 kPa, x2 = 0.7031",0.585 ± 0.016 mPa·s
same,viscosity,"298.15 K, 101.33 kPa, x2 = 0.833",0.557 ± 0.016 mPa·s
same,viscosity,"298.15 K, 101.33 kPa, x2 = 0.8997",0.543 ± 0.016 mPa·s
same,viscosity,"303.15 K, 101.33 kPa, x2 = 0.0994",0.719 ± 0.019 mPa·s
same,viscosity,"303.15 K, 101.33 kPa, x2 = 0.201",0.68 ± 0.018 mPa·s
same,viscosity,"303.15 K, 101.33 kPa, x2 = 0.3063",0.646 ± 0.017 mPa·s
same,viscosity,"303.15 K, 101.33 kPa, x2 = 0.4005",0.614 ± 0.017 mPa·s
same,viscosity,"303.15 K, 101.33 kPa, x2 = 0.5036",0.588 ± 0.016 mPa·s
same,viscosity,"303.15 K, 101.33 kPa, x2 = 0.5982",0.572 ± 0.016 mPa·s
same,viscosity,"303.15 K, 101.33 kPa, x2 = 0.7031",0.548 ± 0.016 mPa·s
same,viscosity,"303.15 K, 101.33 kPa, x2 = 0.833",0.52 ± 0.015 mPa·s
same,viscosity,"303.15 K, 101.33 kPa, x2 = 0.8997",0.511 ± 0.015 mPa·s
same,viscosity,"308.15 K, 101.33 kPa, x2 = 0.0994",0.676 ± 0.018 mPa·s
same,viscosity,"308.15 K, 101.33 kPa, x2 = 0.201",0.633 ± 0.017 mPa·s
same,viscosity,"308.15 K, 101.33 kPa, x2 = 0.3063",0.604 ± 0.016 mPa·s
same,viscosity,"308.15 K, 101.33 kPa, x2 = 0.4005",0.575 ± 0.016 mPa·s
same,viscosity,"308.15 K, 101.33 kPa, x2 = 0.5036",0.551 ± 0.015 mPa·s
same,viscosity,"308.15 K, 101.33 kPa, x2 = 0.5982",0.536 ± 0.015 mPa·s
same,viscosity,"308.15 K, 101.33 kPa, x2 = 0.7031",0.516 ± 0.015 mPa·s
same,viscosity,"308.15 K, 101.33 kPa, x2 = 0.833",0.493 ± 0.014 mPa·s
same,viscosity,"308.15 K, 101.33 kPa, x2 = 0.8997",0.481 ± 0.014 mPa·s
ClC(Cl)(Cl)Cl + COC(C)=O,viscosity,"303.15 K, 101.3 kPa, x2 = 0.1004",0.763 ± 0.005 mPa·s
same,viscosity,"303.15 K, 101.3 kPa, x2 = 0.1926",0.7035 ± 0.0046 mPa·s
same,viscosity,"303.15 K, 101.3 kPa, x2 = 0.2864",0.6472 ± 0.0043 mPa·s
same,viscosity,"303.15 K, 101.3 kPa, x2 = 0.4018",0.587 ± 0.004 mPa·s
same,viscosity,"303.15 K, 101.3 kPa, x2 = 0.5025",0.5405 ± 0.0038 mPa·s
same,viscosity,"303.15 K, 101.3 kPa, x2 = 0.6004",0.5006 ± 0.0035 mPa·s
same,viscosity,"303.15 K, 101.3 kPa, x2 = 0.7001",0.4608 ± 0.0033 mPa·s
same,viscosity,"303.15 K, 101.3 kPa, x2 = 0.8964",0.3807 ± 0.0029 mPa·s
ClC(Cl)(Cl)Cl + COCCO,viscosity,"298.15 K, 100 kPa, x1 = 0.0831",1.569 ± 0.014 mPa·s
same,viscosity,"298.15 K, 100 kPa, x1 = 0.1694",1.49 ± 0.014 mPa·s
same,viscosity,"298.15 K, 100 kPa, x1 = 0.2591",1.412 ± 0.013 mPa·s
same,viscosity,"298.15 K, 100 kPa, x1 = 0.3523",1.335 ± 0.012 mPa·s
same,viscosity,"298.15 K, 100 kPa, x1 = 0.4494",1.26 ± 0.012 mPa·s
same,viscosity,"298.15 K, 100 kPa, x1 = 0.5504",1.186 ± 0.011 mPa·s
same,viscosity,"298.15 K, 100 kPa, x1 = 0.6557",1.114 ± 0.01 mPa·s
same,viscosity,"298.15 K, 100 kPa, x1 = 0.7655",1.043 ± 0.0098 mPa·s
same,viscosity,"298.15 K, 100 kPa, x1 = 0.8802",0.9736 ± 0.0092 mPa·s
same,viscosity,"303.15 K, 100 kPa, x1 = 0.0831",1.392 ± 0.013 mPa·s
same,viscosity,"303.15 K, 100 kPa, x1 = 0.1694",1.328 ± 0.012 mPa·s
same,viscosity,"303.15 K, 100 kPa, x1 = 0.2591",1.265 ± 0.012 mPa·s
same,viscosity,"303.15 K, 100 kPa, x1 = 0.3523",1.202 ± 0.011 mPa·s
same,viscosity,"303.15 K, 100 kPa, x1 = 0.4494",1.171 ± 0.011 mPa·s
same,viscosity,"303.15 K, 100 kPa, x1 = 0.5504",1.079 ± 0.01 mPa·s
same,viscosity,"303.15 K, 100 kPa, x1 = 0.6557",1.019 ± 0.0096 mPa·s
same,viscosity,"303.15 K, 100 kPa, x1 = 0.7655",0.9601 ± 0.0091 mPa·s
same,viscosity,"303.15 K, 100 kPa, x1 = 0.8802",0.902 ± 0.0086 mPa·s
same,viscosity,"308.15 K, 100 kPa, x1 = 0.0831",1.24 ± 0.011 mPa·s
same,viscosity,"308.15 K, 100 kPa, x1 = 0.1694",1.188 ± 0.011 mPa·s
same,viscosity,"308.15 K, 100 kPa, x1 = 0.2591",1.137 ± 0.011 mPa·s
same,viscosity,"308.15 K, 100 kPa, x1 = 0.3523",1.111 ± 0.01 mPa·s
same,viscosity,"308.15 K, 100 kPa, x1 = 0.4494",1.036 ± 0.0097 mPa·s
same,viscosity,"308.15 K, 100 kPa, x1 = 0.5504",0.9853 ± 0.0093 mPa·s
same,viscosity,"308.15 K, 100 kPa, x1 = 0.6557",0.9601 ± 0.0091 mPa·s
same,viscosity,"308.15 K, 100 kPa, x1 = 0.7655",0.8863 ± 0.0084 mPa·s
same,viscosity,"308.15 K, 100 kPa, x1 = 0.8802",0.8376 ± 0.008 mPa·s
same,viscosity,"313.15 K, 100 kPa, x1 = 0.0831",1.108 ± 0.01 mPa·s
same,viscosity,"313.15 K, 100 kPa, x1 = 0.1694",1.067 ± 0.01 mPa·s
same,viscosity,"313.15 K, 100 kPa, x1 = 0.2591",1.025 ± 0.0096 mPa·s
same,viscosity,"313.15 K, 100 kPa, x1 = 0.3523",0.9841 ± 0.0093 mPa·s
same,viscosity,"313.15 K, 100 kPa, x1 = 0.4494",0.9429 ± 0.0089 mPa·s
same,viscosity,"313.15 K, 100 kPa, x1 = 0.5504",0.9015 ± 0.0086 mPa·s
same,viscosity,"313.15 K, 100 kPa, x1 = 0.6557",0.8608 ± 0.0082 mPa·s
same,viscosity,"313.15 K, 100 kPa, x1 = 0.7655",0.8201 ± 0.0079 mPa·s
same,viscosity,"313.15 K, 100 kPa, x1 = 0.8802",0.7796 ± 0.0075 mPa·s
